Data from US20040171489A1, “Synergistic active compound combinations for controlling harmful plants” (priority 1998, published 2004).

What was measured:
[1] = test system: Lamium amolexicaule; assay: Example 15 field trial, 2- to 4-leaf stage: herbicidal effect; assay type: in vivo; settings: 28 days after application
Experimental: (§1) The herbicidal efficacy of the active compounds or active compound mixtures was scored visually using the treated plots in comparison to untreated control plots. The damage and development of all above-ground parts of the plants were recorded. Scoring was carried out using a percentage scale (100% effect=all plants killed; 50% effect=50% of the plants and the green parts of the plants killed; 0% effect=no noticeable effect=like control plot. The scores of in each case 4 plots were averaged.
(§2) If the observed activity values already exceed the formal sum of the values for the trials with the individual applications, they also exceed the expected value according to Colby which is calculated using the following formula and which is likewise considered to be an indication of synergism (cf. S. R. Colby; in Weeds 15 (1967) p. 20 to 22):
(§3) Crop plants were grown outdoors on plots under natural outdoor conditions, and seeds or rhizome pieces of typical harmful plants were laid out or the natural weed growth was utilized. Treatment with the compositions according to the invention was carried out after the harmful plants had emerged and the crop plants were, generally, at the 2- to 4-leaf stage; in some cases (as stated), application of individual active compounds or active compound combinations was carried out pre-emergence (cf. Section 1) or post-emergence (cf. Section 2) or as a sequential treatment partly pre-emergence and/or post-emergence. After the application, for example 2, 4, 6 and 8 weeks after the application, the effect of the preparations was scored visually by comparison with untreated controls (cf. scoring in Section 1). In the field trial as well, the compositions according to the invention have synergistic herbicidal activity against a broad spectrum of economically important weed grasses and broad-leaved weeds. […] Moreover, the effects in essential phases of the scoring period were above the expected values according to Colby, also indicating synergism. In contrast, the crop plants were, as a consequence of the treatments with the herbicidal compositions, damaged only to a small degree, if at all.

[2] = test system: Zea mays (corn); assay: Example 17 field trial, pre-emergence: crop damage; assay type: in vivo; settings: 16 days after application
Excerpt: (§4) Seeds or rhizome pieces of monocotyledonous and dicotyledonous weed plants are placed in sandy loam soil in pots and covered with soil. The compositions, formulated in the form of concentrated aqueous solutions, wettable powders or emulsion concentrates, are then applied to the surface of the soil cover as aqueous solution, suspension or emulsion at an application rate of 600 to 800 l of water/ha (converted), in various dosages. After the treatment, the pots are placed in a greenhouse and kept under good growth conditions for the weeds. After the test plants have emerged, the damage to the plants or the negative effects on the emergence is scored visually after a test period of 3 to 4 weeks by comparison with untreated controls. As shown by the test results, the compositions according to the invention have good herbicidal pre-emergence activity against a broad spectrum of weed grasses and broad-leaved weeds.
The herbicidal efficacy of the active compounds or active compound mixtures was scored visually using the treated plots in comparison to untreated control plots. The damage and development of all above-ground parts of the plants were recorded. […]
as §2
(§5) Crop plants were grown outdoors on plots under natural outdoor conditions, and seeds or rhizome pieces of typical harmful plants were laid out or the natural weed growth was utilized. […] After the application, for example 2, 4, 6 and 8 weeks after the application, the effect of the preparations was scored visually by comparison with untreated controls (cf. scoring in Section 1). […]

[3] = test system: Matricaria chamomilla; assay: Example 14 field trial, 2- to 4-leaf stage: herbicidal effect; assay type: in vivo; settings: 28 days after application
Experimental: as §1, §2, §3

[4] = test system: Alopecurus myosuroides; assay: Example 9 field trials, application 1-3 leaf stage broad-leaved weeds: herbicidal effect; assay type: in vivo; settings: 100 g of ai/ha; 120 to 160 days after application
Experimental: as §1, §2, §3

[5] = test system: Capsella bursa-pastoris; assay: as above; assay type: in vivo; settings: 100 g of ai/ha; 120 to 160 days after application
Experimental: as §1, §2, §3

[6] = test system: Monochoria vaginalis; assay: Example 22 field trial, 2-leaf stage: herbicidal effect; assay type: in vivo; settings: 14 days after application
Experimental: as §1, §2, §3

[7] = test system: Euphorbia heterophylla; assay: Example 20 field trial, 3-leaf stage: herbicidal effect; assay type: in vivo; settings: 31 days after application
Experimental: as §1, §2, §3

[8] = test system: summer wheat; assay: Example 13 field trial, 2- to 4-leaf stage: crop damage; assay type: in vivo, Triticum aestivum; settings: 17 days after application
Experimental: as §1, §2, §3

[9] = test system: winter barley; assay: Example 16 field trial, post-emergence, 2- to 3-leaf stage: crop damage; assay type: in vivo, Hordeum vulgare; settings: 50 g of ai/ha; 69 days after application
Experimental: as §1, §2, §5

[10] = test system: Elusine indica; assay: Example 18 field trial, 3-leaf stage: herbicidal effect; assay type: in vivo; settings: 100 g of ai/ha; 31 days after application
Experimental: as §1, §2
as §3, with “In contrast, the crop plants were, as a consequence of the treatments with the herbicidal compositions, damaged only to a small degree, if at all.” left out

[11] = test system: winter wheat; assay: Example 12 field trial, 2- to 4-leaf stage: crop damage; assay type: in vivo, Triticum aestivum; settings: 42 days after application
Experimental: as §1, §2, §3

[12] = test system: Lamium purpurea; assay: Example 12 field trial, 2- to 4-leaf stage: herbicidal effect; assay type: in vivo; settings: 42 days after application
Experimental: as §1, §2, §3

[13] = test system: winter wheat; assay: Example 16 field trial, post-emergence, 2- to 3-leaf stage: crop damage; assay type: in vivo, Triticum aestivum; settings: 50 g of ai/ha; 69 days after application
Experimental: as §1, §2, §5

[14] = test system: Sorghum verticilliflorum; assay: Example 13 field trial, 2- to 4-leaf stage: herbicidal effect; assay type: in vivo; settings: 17 days after application
Experimental: as §1, §2, §3

[15] = test system: corn which is glufosinate-ammonium-resistant; assay: Example 18 field trial, 3-leaf stage: crop damage; assay type: in vivo, Corn (LL); settings: 100 g of ai/ha; 31 days after application
Experimental: The damage and development of all above-ground parts of the plants were recorded.
Crop plants were grown outdoors on plots under natural outdoor conditions, and seeds or rhizome pieces of typical harmful plants were laid out or the natural weed growth was utilized.

[16] = test system: Capsella bursa-pastoris; assay: Example 11 field trial, 2- to 4-leaf stage: herbicidal effect; assay type: in vivo; settings: 28 days after application
Experimental: as §1, §2, §3

[17] = test system: winter wheat; assay: Example 10 pre-emergence application, fall: crop damage; assay type: in vivo, Triticum aestivum; settings: 169 days after application
Excerpt: as §4, §1, §2, §3

[18] = test system: Pharbitis purpurea; assay: Example 21 field trial, 4-leaf stage: herbicidal effect; assay type: in vivo; settings: 42 days after application
Experimental: as §1, §2
as §3, with “In contrast, the crop plants were, as a consequence of the treatments with the herbicidal compositions, damaged only to a small degree, if at all.” left out

[19] = test system: Oryza sativa (rice); assay: Example 20 field trial, 3-leaf stage: crop damage; assay type: in vivo; settings: 31 days after application
Experimental: as §1, §2, §3

[20] = test system: winter wheat; assay: Example 11 field trial, 2- to 4-leaf stage: crop damage; assay type: in vivo, Triticum aestivum; settings: 28 days after application
Experimental: as §1, §2, §3

[21] = test system: winter barley; assay: Example 9 field trials, application 1-3 leaf stage broad-leaved weeds: crop damage; assay type: in vivo, Hordeum vulgare; settings: 100 g of ai/ha; 120 to 160 days after application
Experimental: as §1, §2
as §3, with “In contrast, the crop plants were, as a consequence of the treatments with the herbicidal compositions, damaged only to a small degree, if at all.” left out

[22] = test system: Oryza sativa (rice); assay: Example 22 field trial, 2-leaf stage: crop damage; assay type: in vivo; settings: 14 days after application
Experimental: as §1, §2, §3

CC(C)(F)c1nc(N)nc(NC(CCc2ccccc2)C2CCC2)n1 (centres unmarked) [(A1), 4-amino-6-(1-fluoro-1-methylethyl)-2-(3-phenyl-1-cyclobutylpropylamino)-1,3,5-triazine] was tested, and the “herbicidal effect, LAMAM” value ([1]; 25 g of ai/ha) was 60%, the “herbicidal effect, LAMAM” value ([1]; 50 g of ai/ha) was 74% and the “herbicidal effect, LAMAM” value ([1]; 100 g of ai/ha) was 80%. For the same compound, the “damage, ZEAMA” value ([2]; 50 g of ai/ha) was 0%, the “damage, ZEAMA” value ([2]; 100 g of ai/ha) was 0% and the “herbicidal effect, MATCH” value ([3]; 25 g of ai/ha) was 43%. For the same compound, the “herbicidal effect, MATCH” value ([3]; 50 g of ai/ha) was 58%, the “herbicidal effect, MATCH” value ([3]; 100 g of ai/ha) was 73% and the “herbicidal effect, ALOMY” value [4] was 0%. For the same compound, the “herbicidal effect, CAPBP” value [5] was 88%, the “herbicidal effect, MOOVA” value ([6]; 25 g of ai/ha) was 3% and the “herbicidal effect, MOOVA” value ([6]; 50 g of ai/ha) was 90%. For the same compound, the “herbicidal effect, MOOVA” value ([6]; 100 g of ai/ha) was 95%, the “herbicidal effect, EPHHL” value ([7]; 25 g of ai/ha) was 15% and the “herbicidal effect, EPHHL” value ([7]; 50 g of ai/ha) was 50%. For the same compound, the “herbicidal effect, EPHHL” value ([7]; 100 g of ai/ha) was 60%, the “damage, TRZAS” value ([8]; 62.5 g of ai/ha) was 5% and the “damage, TRZAS” value ([8]; 125 g of ai/ha) was 13%. For the same compound, the “herbicidal effect (%), HORVW (crop)” value [9] was 0%, the “herbicidal effect, ELEIN” value [10] was 0% and the “damage, TRZAW” value ([11]; 12.5 g of ai/ha) was 0%. For the same compound, the “damage, TRZAW” value ([11]; 25 g of ai/ha) was 0%, the “damage, TRZAW” value ([11]; 50 g of ai/ha) was 0% and the “herbicidal effect, LAMPU” value ([12]; 12.5 g of ai/ha) was 25%. For the same compound, the “herbicidal effect, LAMPU” value ([12]; 25 g of ai/ha) was 65%, the “herbicidal effect, LAMPU” value ([12]; 50 g of ai/ha) was 70% and the “herbicidal effect (%), TRZAW (crop)” value [13] was 0%. For the same compound, the “herbicidal effect, SORVE” value ([14]; 62.5 g of ai/ha) was 35%, the “herbicidal effect, SORVE” value ([14]; 125 g of ai/ha) was 50% and the “damage, Corn (LL)” value [15] was 0%. The “herbicidal effect, CAPPBP” value ([16]; 25 g of ai/ha) was 40%, the “herbicidal effect, CAPPBP” value ([16]; 50 g of ai/ha) was 68% and the “herbicidal effect, CAPPBP” value ([16]; 75 g of ai/ha) was 73%. The “herbicidal effect, CAPPBP” value ([16]; 100 g of ai/ha) was 79%, the “damage, TRZAW” value ([17]; 50 g of ai/ha) was 1% and the “damage, TRZAW” value ([17]; 100 g of ai/ha) was 2%. For the same compound, the “herbicidal effect, PHBPU” value ([18]; 25 g of ai/ha) was 90%, the “herbicidal effect, PHBPU” value ([18]; 50 g of ai/ha) was 95% and the “herbicidal effect, PHBPU” value ([18]; 100 g of ai/ha) was 97%. For the same compound, the “damage, ORYSA” value ([19]; 25 g of ai/ha) was 0%, the “damage, ORYSA” value ([19]; 50 g of ai/ha) was 0% and the “damage, ORYSA” value ([19]; 100 g of ai/ha) was 0%. For the same compound, the “damage, TRZAW” value ([20]; 25 g of ai/ha) was 0%, the “damage, TRZAW” value ([20]; 50 g of ai/ha) was 1% and the “damage, TRZAW” value ([20]; 75 g of ai/ha) was 1%. The “damage, TRZAW” value ([20]; 100 g of ai/ha) was 2%, the “damage, HORVW” value [21] was 0% and the “damage, ORYSA” value ([22]; 25 g of ai/ha) was 0%. For the same compound, the “damage, ORYSA” value ([22]; 50 g of ai/ha) was 10% and the “damage, ORYSA” value ([22]; 100 g of ai/ha) was 13%.
